# Assay results reported in PubChem BioAssay AID1963969 (Molecular Pharmacology Branch, DTP, NCI, 2024).
# Where “and” joins values, the source holds several entries; their conditions need not be identical. Equal entries are not always repeated.
# Test system: 817829-284-R-J1-PDC multi-cell spheroid viability
# Assay: Anticancer human tumor 817829-284-R-J1-PDC patient-derived colon adenocarcinoma cell line growth inhibition [PI3K]
# Conditions: for viability, T/C: stronger effect = lower value
# Procedure, shortened: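 We assembled tumor spheroids that included a stromal compartment of HUVEC and MSCs, then exposed them to targeted agents alone and together with PI3K pathway inhibitors. Concentration series descended by half-log from clinically achievable Cmax levels. Viability served as the endpoint.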
# [1] = curve of first compound, second compound 0.0316 µM
# [2] = curve of first compound, second compound 0.1 µM
# [3] = curve of first compound, second compound 0.316 µM
# [4] = curve of first compound, second compound 1 µM
# [5] = second compound 0.0316 µM, first compound 0.0316 µM
# [6] = second compound 0.0316 µM, first compound 0.1 µM
# [7] = second compound 0.0316 µM, first compound 0.316 µM
# [8] = second compound 0.0316 µM, first compound 1 µM
# [9] = second compound 0.1 µM, first compound 0.0316 µM
# [10] = second compound 0.1 µM, first compound 0.1 µM
# [11] = second compound 0.1 µM, first compound 0.316 µM
# [12] = second compound 0.1 µM, first compound 1 µM
# [13] = second compound 0.316 µM, first compound 0.0316 µM
# [14] = second compound 0.316 µM, first compound 0.1 µM
# [15] = second compound 0.316 µM, first compound 0.316 µM
# [16] = second compound 0.316 µM, first compound 1 µM
# [17] = second compound 1 µM, first compound 0.0316 µM
# [18] = second compound 1 µM, first compound 0.1 µM
# [19] = second compound 1 µM, first compound 0.316 µM
# [20] = second compound 1 µM, first compound 1 µM
# [21] = curve of first compound, second compound 3.16 µM
# [22] = curve of first compound, second compound 10 µM
# [23] = second compound 0.0316 µM, first compound 0.00316 µM
# [24] = second compound 0.0316 µM, first compound 0.01 µM
# [25] = second compound 0.1 µM, first compound 0.00316 µM
# [26] = second compound 0.1 µM, first compound 0.01 µM
# [27] = second compound 0.316 µM, first compound 0.00316 µM
# [28] = second compound 0.316 µM, first compound 0.01 µM
# [29] = second compound 1 µM, first compound 0.00316 µM
# [30] = second compound 1 µM, first compound 0.01 µM
# [31] = second compound 3.16 µM, first compound 0.00316 µM
# [32] = second compound 3.16 µM, first compound 0.01 µM
# [33] = second compound 3.16 µM, first compound 0.0316 µM
# [34] = second compound 3.16 µM, first compound 0.1 µM
# [35] = second compound 10 µM, first compound 0.00316 µM
# [36] = second compound 10 µM, first compound 0.01 µM
# [37] = second compound 10 µM, first compound 0.0316 µM
# [38] = second compound 10 µM, first compound 0.1 µM
# 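Note: spheroids exposed to agents for seven days before readout.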
# 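Throughout, for viability, T/C: percent of vehicle DMSO control viability which is 100%.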
structure (smiles),measurement,setting,value
CCCS(=O)(=O)Nc1ccc(F)c(C(=O)c2c[nH]c3ncc(-c4ccc(Cl)cc4)cc23)c1F + COc1c(OCCCN2CCOCC2)ccc2c3n(c(=NC(=O)c4cnc(N)nc4)nc12)CCN3,IC50,"curve of first compound, second compound 0.00316 µM",1900 nM
same,IC50,"curve of first compound, second compound 0.01 µM",4240 nM
same,IC50,[1],2300 nM
same,IC50,[2],31.6 nM
same,IC50,[3],< 31.6 nM
same,IC50,[4],< 31.6 nM
same,"viability, T/C","second compound 0.00316 µM, first compound 0.0316 µM",117%
same,"viability, T/C","second compound 0.00316 µM, first compound 0.1 µM",87%
same,"viability, T/C","second compound 0.00316 µM, first compound 0.316 µM",71.5%
same,"viability, T/C","second compound 0.00316 µM, first compound 1 µM",66.4%
same,"viability, T/C","second compound 0.00316 µM, first compound 3.16 µM",59.5%
same,"viability, T/C","second compound 0.00316 µM, first compound 10 µM",10.7%
same,"viability, T/C","second compound 0.01 µM, first compound 0.0316 µM",104%
same,"viability, T/C","second compound 0.01 µM, first compound 0.1 µM",53.6%
same,"viability, T/C","second compound 0.01 µM, first compound 0.316 µM",66.5%
same,"viability, T/C","second compound 0.01 µM, first compound 1 µM",70.9%
same,"viability, T/C","second compound 0.01 µM, first compound 3.16 µM",64.1%
same,"viability, T/C","second compound 0.01 µM, first compound 10 µM",8.97%
same,"viability, T/C",[5],45.4%
same,"viability, T/C",[6],70%
same,"viability, T/C",[7],43.8%
same,"viability, T/C",[8],64.1%
same,"viability, T/C","second compound 0.0316 µM, first compound 3.16 µM",47.9%
same,"viability, T/C","second compound 0.0316 µM, first compound 10 µM",10.2%
same,"viability, T/C",[9],34.4%
same,"viability, T/C",[10],39.3%
same,"viability, T/C",[11],71.2%
same,"viability, T/C",[12],26.8%
same,"viability, T/C","second compound 0.1 µM, first compound 3.16 µM",28.2%
same,"viability, T/C","second compound 0.1 µM, first compound 10 µM",14.4%
same,"viability, T/C",[13],21.7%
same,"viability, T/C",[14],19.6%
same,"viability, T/C",[15],21.3%
same,"viability, T/C",[16],16%
same,"viability, T/C","second compound 0.316 µM, first compound 3.16 µM",16.1%
same,"viability, T/C","second compound 0.316 µM, first compound 10 µM",9.88%
same,"viability, T/C",[17],10%
same,"viability, T/C",[18],14.3%
same,"viability, T/C",[19],8.54%
same,"viability, T/C",[20],6.57%
same,"viability, T/C","second compound 1 µM, first compound 3.16 µM",9.78%
same,"viability, T/C","second compound 1 µM, first compound 10 µM",4.54%
CNC(=O)c1ccc(N2C(=S)N(c3ccc(C#N)c(C(F)(F)F)c3)C(=O)C2(C)C)cc1F,"viability, T/C",compound 0.0316 µM,86.9% and 87.2% and 88.4%
same,"viability, T/C",compound 0.1 µM,93.2% and 97.5% and 76.6%
same,"viability, T/C",compound 0.316 µM,70.6% and 71.9% and 77.2%
same,"viability, T/C",compound 1 µM,99.3% and 68.8% and 80.3%
same,"viability, T/C",compound 3.16 µM,84.2% and 97.4% and 67.9%
same,"viability, T/C",compound 10 µM,65.4% and 29% and 68.9%
same,IC50,curve of compound,> 10000 nM and 6480 nM
CCN1CCN(Cc2ccc(Nc3ncc(F)c(-c4cc(F)c5nc(C)n(C(C)C)c5c4)n3)nc2)CC1 + Cc1nc(NC(=O)N2CCCC2C(N)=O)sc1-c1ccnc(C(C)(C)C(F)(F)F)c1,IC50,[1],638 nM
same,IC50,[2],316 nM
same,IC50,[3],325 nM
same,IC50,[4],122 nM
same,IC50,[21],56.9 nM
same,IC50,[22],6.96 nM
same,"viability, T/C",[23],75.4%
same,"viability, T/C",[24],55.4%
same,"viability, T/C",[5],90.8%
same,"viability, T/C",[6],52.5%
same,"viability, T/C",[7],66.5%
same,"viability, T/C",[8],42.1%
same,"viability, T/C",[25],91.5%
same,"viability, T/C",[26],70.8%
same,"viability, T/C",[9],112%
same,"viability, T/C",[10],46.7%
same,"viability, T/C",[11],64.4%
same,"viability, T/C",[12],59.1%
same,"viability, T/C",[27],76.4%
same,"viability, T/C",[28],53.1%
same,"viability, T/C",[13],74.9%
same,"viability, T/C",[14],49.9%
same,"viability, T/C",[15],48.2%
same,"viability, T/C",[16],47.1%
same,"viability, T/C",[29],76%
same,"viability, T/C",[30],63.5%
same,"viability, T/C",[17],56.5%
same,"viability, T/C",[18],47.8%
same,"viability, T/C",[19],51.5%
same,"viability, T/C",[20],43.7%
same,"viability, T/C",[31],53.1%
same,"viability, T/C",[32],63.5%
same,"viability, T/C",[33],61%
same,"viability, T/C",[34],39.4%
same,"viability, T/C","second compound 3.16 µM, first compound 0.316 µM",41.6%
same,"viability, T/C","second compound 3.16 µM, first compound 1 µM",42.6%
same,"viability, T/C",[35],66.1%
same,"viability, T/C",[36],35.1%
same,"viability, T/C",[37],51.9%
same,"viability, T/C",[38],38.4%
same,"viability, T/C","second compound 10 µM, first compound 0.316 µM",46.7%
same,"viability, T/C","second compound 10 µM, first compound 1 µM",41%
CC(=O)c1c(C)c2cnc(Nc3ccc(N4CCNCC4)cn3)nc2n(C2CCCC2)c1=O + Cc1nc(NC(=O)N2CCCC2C(N)=O)sc1-c1ccnc(C(C)(C)C(F)(F)F)c1,IC50,[1],27.2 nM
same,IC50,[2],4.34 nM
same,IC50,[3],23.6 nM
same,IC50,[4],3.26 nM
same,IC50,[21],2.05 nM
same,IC50,[22],< 0.316 nM
same,"viability, T/C","second compound 0.0316 µM, first compound 0.000316 µM",88.4%
same,"viability, T/C","second compound 0.0316 µM, first compound 0.001 µM",96.1%
same,"viability, T/C",[23],70.8%
same,"viability, T/C",[24],60.1%
same,"viability, T/C",[5],52.8%
same,"viability, T/C",[6],38.2%
same,"viability, T/C","second compound 0.1 µM, first compound 0.000316 µM",71.2%
same,"viability, T/C","second compound 0.1 µM, first compound 0.001 µM",79.7%
same,"viability, T/C",[25],52.4%
same,"viability, T/C",[26],45%
same,"viability, T/C",[9],38.1%
same,"viability, T/C",[10],47.6%
same,"viability, T/C","second compound 0.316 µM, first compound 0.000316 µM",75.1%
same,"viability, T/C","second compound 0.316 µM, first compound 0.001 µM",53.8%
same,"viability, T/C",[27],65.9%
same,"viability, T/C",[28],66.9%
same,"viability, T/C",[13],34.7%
same,"viability, T/C",[14],44.7%
same,"viability, T/C","second compound 1 µM, first compound 0.000316 µM",43.6%
same,"viability, T/C","second compound 1 µM, first compound 0.001 µM",55.4%
same,"viability, T/C",[29],51.6%
same,"viability, T/C",[30],42.1%
same,"viability, T/C",[17],37.3%
same,"viability, T/C",[18],37%
same,"viability, T/C","second compound 3.16 µM, first compound 0.000316 µM",62.5%
same,"viability, T/C","second compound 3.16 µM, first compound 0.001 µM",58.9%
same,"viability, T/C",[31],38.3%
same,"viability, T/C",[32],49.3%
same,"viability, T/C",[33],32%
same,"viability, T/C",[34],31.5%
same,"viability, T/C","second compound 10 µM, first compound 0.000316 µM",51.8%
same,"viability, T/C","second compound 10 µM, first compound 0.001 µM",43.8%
same,"viability, T/C",[35],40.7%
same,"viability, T/C",[36],47.5%
same,"viability, T/C",[37],43.8%
same,"viability, T/C",[38],21.3%
